Experimental data from ChEMBL document CHEMBL4334526, “Synthesis of Peptoid-Based Class I-Selective Histone Deacetylase Inhibitors with Chemosensitizing Properties” (J Med Chem, 2019).
Activity calls are given as the source filed them. No cut-off for these calls is given here.

Tests used:
[1] = biological target: T1, Class 1 histone deacetylase (Homo sapiens, UniProt Q13547+O15379+Q92769+Q9BY41); experiment: Inhibition of class 1 HDAC in human CAL27 cells assessed as increase in histone H3 acetylation at […] measured after 24 hrs by immunoblot analysis; assay type: cell-based; conditions: CAL-27
T1 sequence (O15379 whole entry, looked up): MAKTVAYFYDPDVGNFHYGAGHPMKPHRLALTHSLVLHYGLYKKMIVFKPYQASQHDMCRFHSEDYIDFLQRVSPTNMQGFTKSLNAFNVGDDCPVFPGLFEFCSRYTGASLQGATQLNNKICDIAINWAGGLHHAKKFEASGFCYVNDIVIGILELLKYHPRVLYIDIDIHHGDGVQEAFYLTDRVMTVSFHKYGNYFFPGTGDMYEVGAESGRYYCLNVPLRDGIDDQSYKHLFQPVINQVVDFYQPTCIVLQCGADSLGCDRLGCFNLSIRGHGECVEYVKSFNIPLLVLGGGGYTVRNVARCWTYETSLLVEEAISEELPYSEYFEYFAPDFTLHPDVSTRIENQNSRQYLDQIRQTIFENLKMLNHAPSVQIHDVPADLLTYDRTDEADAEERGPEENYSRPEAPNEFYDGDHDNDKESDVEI
T1 sequence (Q13547 whole entry, looked up): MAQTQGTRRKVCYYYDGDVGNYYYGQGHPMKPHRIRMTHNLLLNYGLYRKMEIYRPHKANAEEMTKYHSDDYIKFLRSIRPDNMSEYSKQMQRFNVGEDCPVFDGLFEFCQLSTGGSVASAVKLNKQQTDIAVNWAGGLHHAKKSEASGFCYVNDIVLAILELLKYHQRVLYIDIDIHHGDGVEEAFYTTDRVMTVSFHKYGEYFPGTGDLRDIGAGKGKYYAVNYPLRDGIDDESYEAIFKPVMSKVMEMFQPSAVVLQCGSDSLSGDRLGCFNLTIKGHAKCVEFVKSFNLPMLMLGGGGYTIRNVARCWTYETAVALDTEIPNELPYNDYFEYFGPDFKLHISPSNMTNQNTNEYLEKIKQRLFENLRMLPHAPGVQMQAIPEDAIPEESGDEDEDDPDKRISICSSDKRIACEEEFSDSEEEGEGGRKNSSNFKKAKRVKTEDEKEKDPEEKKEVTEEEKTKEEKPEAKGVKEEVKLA
T1 sequence (Q92769 whole entry, looked up): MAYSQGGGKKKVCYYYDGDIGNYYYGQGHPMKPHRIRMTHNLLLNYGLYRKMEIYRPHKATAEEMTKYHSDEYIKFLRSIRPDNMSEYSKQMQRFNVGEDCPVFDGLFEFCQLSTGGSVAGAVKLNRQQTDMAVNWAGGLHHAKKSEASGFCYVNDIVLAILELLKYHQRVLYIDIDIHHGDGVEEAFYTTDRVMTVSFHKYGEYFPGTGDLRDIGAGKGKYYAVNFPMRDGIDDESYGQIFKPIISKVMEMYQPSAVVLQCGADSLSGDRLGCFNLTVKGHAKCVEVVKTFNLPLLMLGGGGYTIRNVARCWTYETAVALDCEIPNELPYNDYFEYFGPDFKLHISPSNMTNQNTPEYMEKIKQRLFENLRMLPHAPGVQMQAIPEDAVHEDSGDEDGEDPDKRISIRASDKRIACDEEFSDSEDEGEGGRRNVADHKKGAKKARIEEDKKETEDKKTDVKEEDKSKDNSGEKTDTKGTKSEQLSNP
T1 sequence (Q9BY41 whole entry, looked up): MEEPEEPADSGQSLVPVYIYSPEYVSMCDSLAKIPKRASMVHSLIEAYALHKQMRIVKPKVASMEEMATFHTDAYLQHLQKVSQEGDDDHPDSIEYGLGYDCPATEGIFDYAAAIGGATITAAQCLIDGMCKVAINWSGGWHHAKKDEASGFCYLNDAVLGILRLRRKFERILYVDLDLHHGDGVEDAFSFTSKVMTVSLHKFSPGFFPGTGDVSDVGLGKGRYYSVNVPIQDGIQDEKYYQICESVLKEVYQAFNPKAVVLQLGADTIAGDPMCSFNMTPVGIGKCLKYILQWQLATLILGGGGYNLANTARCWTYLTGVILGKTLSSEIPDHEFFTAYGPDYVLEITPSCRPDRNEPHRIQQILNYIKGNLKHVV

[2] = Induction of apoptosis in human Cal27CisR cells assessed as accumulation at sub-G1 phase at […] after 48 hrs by propidium iodide staining based flow cytometry relative to control; assay type: functional
CAL-27 [3] = experiment: Induction of apoptosis in human CAL27 cells assessed as accumulation at sub-G1 phase at […] after 48 hrs by propidium iodide staining based flow cytometry relative to control; assay type: functional
[4] = biological target: T1, Class 1 histone deacetylase; experiment: (§1) Inhibition of class 1 HDAC in human CAL27 cells assessed as potentiation of cisplatin-induced apoptosis assessed as increase in caspase-3/7 activation at […] preincubated for 48 hrs followed by cisplatin addition and measured after 24 hrs by CellEvent caspase 3/7 green detection reagent/Hoechst 33342 staining based imaging analysis; assay type: cell-based; conditions: CAL-27
[5] = biological target: T1, Class 1 histone deacetylase; experiment: as §1, with “in human Cal27CisR cells assessed” for “in human CAL27 cells assessed”, “24 hrs in presence of pan caspase inhibitor QVD by CellEvent” for “24 hrs by CellEvent”; assay type: cell-based
[6] = Induction of apoptosis in human Cal27CisR cells assessed as caspase-3/7 activation at […] measured after 48 hrs by CellEvent caspase 3/7 green detection reagent/Hoechst 33342 staining based imaging analysis relative to control; assay type: functional
[7] = biological target: T2, Protein deacetylase HDAC6 (Homo sapiens) (UniProt Q9UBN7); experiment: Inhibition of HDAC6 in human Cal27CisR cells assessed as acetylation of alpha-tubulin at 5 uM measured after 24 hrs by immunoblot analysis; assay type: cell-based
T2 sequence (whole entry): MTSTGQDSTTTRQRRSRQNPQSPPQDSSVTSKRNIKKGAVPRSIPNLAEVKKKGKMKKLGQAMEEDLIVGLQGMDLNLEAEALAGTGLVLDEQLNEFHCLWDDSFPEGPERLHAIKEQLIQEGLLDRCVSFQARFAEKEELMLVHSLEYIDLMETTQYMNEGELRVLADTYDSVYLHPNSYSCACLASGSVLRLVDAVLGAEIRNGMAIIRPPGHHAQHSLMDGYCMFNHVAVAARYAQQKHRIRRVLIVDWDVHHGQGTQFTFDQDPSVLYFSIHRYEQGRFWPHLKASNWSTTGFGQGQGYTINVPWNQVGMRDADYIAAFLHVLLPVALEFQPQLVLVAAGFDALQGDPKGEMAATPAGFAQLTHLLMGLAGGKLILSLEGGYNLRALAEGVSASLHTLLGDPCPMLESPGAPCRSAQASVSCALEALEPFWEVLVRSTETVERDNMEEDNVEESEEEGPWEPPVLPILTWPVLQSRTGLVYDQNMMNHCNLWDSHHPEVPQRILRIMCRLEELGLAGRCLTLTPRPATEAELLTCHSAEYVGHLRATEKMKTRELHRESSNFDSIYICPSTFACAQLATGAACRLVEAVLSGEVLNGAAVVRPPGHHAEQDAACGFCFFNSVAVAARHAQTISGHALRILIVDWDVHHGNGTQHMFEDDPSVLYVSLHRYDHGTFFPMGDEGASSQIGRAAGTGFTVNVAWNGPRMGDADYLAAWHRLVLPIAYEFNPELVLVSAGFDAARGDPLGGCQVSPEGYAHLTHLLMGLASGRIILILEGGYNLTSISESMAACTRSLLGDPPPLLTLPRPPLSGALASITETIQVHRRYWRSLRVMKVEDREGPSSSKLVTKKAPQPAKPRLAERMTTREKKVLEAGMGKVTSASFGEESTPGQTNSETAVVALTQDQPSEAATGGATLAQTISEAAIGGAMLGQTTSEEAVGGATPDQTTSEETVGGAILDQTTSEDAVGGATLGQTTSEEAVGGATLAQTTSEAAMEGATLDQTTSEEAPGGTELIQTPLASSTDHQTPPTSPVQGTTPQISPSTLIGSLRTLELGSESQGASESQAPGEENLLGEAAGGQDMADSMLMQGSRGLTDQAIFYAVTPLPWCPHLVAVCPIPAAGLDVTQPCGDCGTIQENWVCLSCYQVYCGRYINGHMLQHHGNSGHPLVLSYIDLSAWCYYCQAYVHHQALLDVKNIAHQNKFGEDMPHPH

[8] = biological target: T1, Class 1 histone deacetylase; experiment: Inhibition of class 1 HDAC in human CAL27 cells assessed as potentiation of cisplatin-induced cytotoxicity by measuring combination index at 5 uM in presence of […] cisplatin by MTT assay based Chou-Talalay analysis; assay type: cell-based; conditions: CAL-27
[9] = biological target: T1, Class 1 histone deacetylase; experiment: Inhibition of class 1 HDAC in human Cal27CisR cells assessed as potentiation of cisplatin-induced cytotoxicity by measuring fold reduction in cisplatin IC50 at 5 uM preincubated for 48 hrs followed by cisplatin addition and measured after 72 hrs by MTT assay relative to cisplatin IC50; assay type: cell-based
[10] = biological target: T1, Class 1 histone deacetylase; experiment: Inhibition of class 1 HDAC in human Cal27CisR cells assessed as increase in histone H3 acetylation at 5 uM measured after 24 hrs by immunoblot analysis; assay type: cell-based
[11] = biological target: T1, Class 1 histone deacetylase; experiment: (§2) Inhibition of class 1 HDAC in human CAL27 cells assessed as potentiation of cisplatin-induced apoptosis assessed as increase in caspase-3/7 activation at 5 uM preincubated for 48 hrs followed by cisplatin addition and measured after 24 hrs in presence of pan caspase inhibitor QVD by CellEvent caspase 3/7 green detection reagent/Hoechst 33342 staining based imaging analysis; assay type: cell-based; conditions: CAL-27
[12] = biological target: T1, Class 1 histone deacetylase; experiment: as §2, with “Cal27CisR” for “CAL27”; assay type: cell-based
[13] = biological target: T1, Class 1 histone deacetylase; conditions: CAL-27
Description: Inhibition of class 1 HDAC in human CAL27 cells assessed as potentiation of cisplatin-induced cytotoxicity by measuring combination index at 0.1 uM in presence of 1 uM cisplatin by MTT assay based Chou-Talalay analysis

[14] = biological target: T1, Class 1 histone deacetylase; assay type: cell-based
[15] = biological target: T1, Class 1 histone deacetylase; conditions: CAL-27; remark: listed apart in the source
Description: Inhibition of class 1 HDAC in human CAL27 cells assessed as potentiation of cisplatin-induced cytotoxicity by measuring combination index at 0.1 uM in presence of 0.32 uM cisplatin by MTT assay based Chou-Talalay analysis

[16] = biological target: T1, Class 1 histone deacetylase; conditions: CAL-27; remark: listed apart in the source
Description: Inhibition of class 1 HDAC in human CAL27 cells assessed as potentiation of cisplatin-induced cytotoxicity by measuring combination index at 0.25 uM in presence of 10 uM cisplatin by MTT assay based Chou-Talalay analysis

[17] = biological target: T1, Class 1 histone deacetylase; conditions: CAL-27; remark: listed apart in the source
Description: Inhibition of class 1 HDAC in human CAL27 cells assessed as potentiation of cisplatin-induced cytotoxicity by measuring combination index at 0.1 uM in presence of 10 uM cisplatin by MTT assay based Chou-Talalay analysis

[18] = biological target: T1, Class 1 histone deacetylase
Description: Inhibition of class 1 HDAC in human Cal27CisR cells assessed as potentiation of cisplatin-induced cytotoxicity by measuring combination index at 0.25 uM in presence of 10 uM cisplatin by MTT assay based Chou-Talalay analysis

[19] = biological target: T1, Class 1 histone deacetylase; conditions: CAL-27; remark: listed apart in the source
Description: Inhibition of class 1 HDAC in human CAL27 cells assessed as potentiation of cisplatin-induced cytotoxicity by measuring combination index at 0.25 uM in presence of 1 uM cisplatin by MTT assay based Chou-Talalay analysis

CAL-27 [20] = experiment: Induction of apoptosis in human CAL27 cells assessed as accumulation at sub-G1 phase at 100 uM measured after 48 hrs by propidium iodide staining based flow cytometry relative to control; assay type: functional
CAL-27 [21] = experiment: Potency index, ratio of vorinostat IC50 to test compound IC50 for cytotoxicity against human CAL27 cells; assay type: functional

**Q.** What does the source list for Cc1cc(C)cc(C(=O)N(CC(=O)NCc2ccccc2)Cc2ccc(C(=O)Nc3cc(-c4ccccc4)ccc3N)cc2)c1?
**A.** inhibition [1]: Active; Activity [2]: 7.45%; Activity (CAL-27 [3]): 6.27%; inhibition [4]: Active; inhibition [5]: inactive; Activity [6]: 5.96%

**Q.** For Cc1cc(C)cc(C(=O)N(CCCCCC(=O)Nc2cc(-c3ccccc3)ccc2N)CC(=O)NCc2ccccc2)c1, which inhibition [7] is on record?
**A.** inactive

**Q.** And the CI [8]?
**A.** 0.1

**Q.** And the Ratio IC50 [9]?
**A.** 4.03

**Q.** What about the inhibition [10] of the same compound?
**A.** Active

**Q.** And the inhibition [11]?
**A.** inactive

**Q.** And the inhibition [12]?
**A.** inactive

**Q.** What does the source list for CN(C)c1ccc(C(=O)N(CC(=O)NCc2ccccc2)Cc2ccc(C(=O)Nc3ccccc3N)cc2)cc1?
**A.** CI [13]: 0.91; IC50 [14]: 8.42 µM; CI [15]: < 0.2; CI [16]: 0.02; CI [17]: 0.33; CI [18]: 0.23; CI [19]: 0.11; Activity (CAL-27 [20]): 31%; Ratio IC50 (CAL-27 [21]): 1.7
